{
  "source": "patent US20250346512A1",
  "about": "“WATER TREATMENT METHOD, WATER TREATMENT APPARATUS, SLIME INHIBITOR, AND CLEANING METHOD” (ORGANO CORPORATION, priority 2022, published 2025)",
  "tested_on": "viable bacteria",
  "experiment": "Contact of slime inhibitor with water containing viable bacteria",
  "format": "cell-based",
  "from_the_text": "The slime inhibitor was brought into contact with water containing viable bacteria, and the number of viable bacteria before the contact with the slime inhibitor and the number of viable bacteria after contact with the slime inhibitor for one hour were examined.",
  "data": [
    {"smiles": "OCl", "note": "[Sodium hypochlorite, sodium hypochlorite]", "values": [
      {"measurement": "Number of viable bacteria before contact with slime inhibitor", "setting": "baseline before contact", "result": "10^6"},
      {"measurement": "Number of viable bacteria after contact with slime inhibitor for one hour", "setting": "slime inhibitor 0.1 mg/L as Cl2, contact one hour", "result": "10^5"}
    ]}
  ]
}
